Results: the supplement of paper PMC4862054

Tests used:
[1] = system: CAL-51; conditions: 72 h
Method in brief: (§1)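 Two sequential readouts followed a 72 h incubation of breast cancer cell lines with compound at 5 concentrations in 10-fold steps over a compound-specific 10,000-fold range: CellTox Green fluorescence (485/520 nm) for cell death, then CellTiter-Glo luminescence, after 10 min at room temperature, for viability. Each plate was normalised to 0.1 % DMSO and a positive kill control. Dose-response curves were fitted for EC50, censored at the top concentration.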

[2] = system: CAL-85-1; conditions: 72 h
Method in brief: as §1

[3] = system: MCF-10A; conditions: 72 h
Method in brief: as §1

[4] = system: MDA-MB-468; conditions: 72 h
Method in brief: as §1

[5] = system: CAL-120; test: normalised response (% of control), CellTiter-Glo; higher = more viable cells (100 = DMSO, 0 = benzethonium chloride kill control); conditions: incubation time: 72 h
Protocol: (§2)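 DSRT, 72 h incubation, CellTox Green / CellTiter-Glo readout. Signal is normalised to DMSO and benzethonium chloride controls. Value is the normalised response at the highest dose.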

[6] = system: CAL-148; test: as above; conditions: incubation time: 72 h
Protocol: as §2

[7] = system: DU-4475; test: as above; conditions: incubation time: 72 h
Protocol: as §2

[8] = system: HCC1599; test: as above; conditions: incubation time: 72 h
Protocol: as §2

[9] = system: HCC1937; test: as above; conditions: incubation time: 72 h
Protocol: as §2

[10] = system: Hs578T; test: as above; conditions: incubation time: 72 h
Protocol: as §2

[11] = system: MDA-MB-231; test: as above; conditions: incubation time: 72 h
Protocol: as §2

[12] = system: MDA-MB-453; test: as above; conditions: incubation time: 72 h
Protocol: as §2

[13] = system: HCC1143; test: normalised viability (% of control), CellTiter-Blue; higher = more viable cells (about 100 = DMSO control); conditions: incubation time: 72 h
Method in brief: (§3)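 Each entry is normalised viability at a single listed concentration within a series. It comes from breast cancer cell lines incubated 72 h with compound in 384-well plates, then measured with CellTiter-Blue fluorescence at 560/590 nm. Every plate was normalised between vehicle (100) and a positive kill control (0).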

[14] = system: HCC1599; test: as above; conditions: incubation time: 72 h
Method in brief: as §3

[15] = system: HCC1937; test: as above; conditions: incubation time: 72 h
Method in brief: as §3

[16] = system: SK-BR-3; test: as above; conditions: incubation time: 72 h
Method in brief: as §3

Row | SMILES | normalised response [5] | normalised response [6] | normalised response [7] | normalised response [8] | normalised response [9] | normalised response [10] | normalised response [11] | normalised response [12] | other results
1 | Nc1nccc(-c2c(-c3ccc(F)cc3)ncn2C2CCCCC2)n1 | – | – | – | – | – | – | – | – | EC50, CellTiter-Glo [1]: > 10 µM; EC50, CellTiter-Glo [2]: 9.49 µM; EC50, CellTiter-Glo [3]: 9.77 µM; EC50, CellTiter-Glo [4]: 0.213 µM
2 | COc1ncc(-c2ccc3nccc(-c4ccnnc4)c3c2)cc1NS(=O)(=O)c1ccc(F)cc1F (1000 nM) | 29.9% | 6.28% | 9.21% | 56.4% | 24% | 16.1% | 33.7% | 7.5% | –
3 | C[C@@]1(C(=O)Nc2ccc(F)nc2)CCCN1c1nc(Nc2cc(C3CC3)n[nH]2)c2cccn2n1 (10000 nM) | 13.4% | 56.7% | 31.4% | 54.9% | 62.6% | 44.7% | 26.1% | 127% | –
4 | COc1c(C)cnc(Cn2cnc3c(Cl)nc(N)nc32)c1C [BIIB021] (10000 nM) | 45.4% | 25.1% | 0.28% | 47.4% | 29.4% | 33.7% | 16.7% | 27.5% | –
5 | CC(C)C[C@H](NC(=O)[C@H](Cc1ccccc1)NC(=O)c1cnccn1)B(O)O [Bortezomib] (1000 nM) | 7.39% | 0.43% | 6.46% | 21.3% | 2.46% | 0.04% | 0.08% | 11.5% | –
6 | CS(=O)(=O)OCCCCOS(C)(=O)=O [Busulfan] (100000 nM) | 101% | 106% | 101% | 96% | 98.8% | 102% | 101% | 102% | –
7 | C#Cc1cccc(Nc2ncnc3cc(OC)c(OCCCCCCC(=O)NO)cc23)c1 [CUDC-101] (10000 nM) | 38.6% | 0.32% | 5.82% | 7.05% | 21% | 6.2% | 2.74% | 4.64% | –
8 | COc1cccc2c1C(=O)c1c(O)c3c(c(O)c1C2=O)C[C@@](O)(C(C)=O)C[C@@H]3O[C@H]1C[C@H](N)[C@H](O)[C@H](C)O1 [Daunorubicin] (1000 nM) | 41.2% | 0.79% | 0.14% | 19.3% | 32.1% | 35.1% | 8.81% | 4.31% | –
9 | CN1CCN(c2ccc3nc(-c4c(N)c5c(F)cccc5[nH]c4=O)[nH]c3c2)CC1 [Dovitinib] (10000 nM) | 89.4% | 88.1% | 99.9% | 102% | 88% | 95.8% | 94% | 96.4% | –
10 | O=c1[nH]c(=O)n([C@H]2C[C@H](O)[C@@H](CO)O2)cc1F [Floxuridine] (10000 nM) | 33.5% | 95.7% | 70.7% | 58.1% | 42% | 23% | 67.9% | 97.6% | –
11 | O=c1[nH]cc(F)c(=O)[nH]1 [Fluorouracil] (10000 nM) | 95.5% | 88.6% | 99.5% | 93.8% | 72.8% | 93.7% | 82.2% | 94.8% | –
12 | C[C@@H]1C=C2C(=O)O[C@@H]3CC[C@H](C1)[C@]23O [Galiellalactone] (50000 nM) | 105% | 124% | 102% | 90.3% | 107% | 101% | 106% | 105% | –
13 | COC1=C2C[C@@H](C)C[C@H](OC)[C@H](O)[C@@H](C)/C=C(\C)[C@H](OC(N)=O)[C@@H](OC)/C=C\C=C(/C)C(=O)NC(=CC1=O)C2=O [Geldanamycin] (10000 nM) | 26.7% | 33.4% | 0.14% | 45% | 24.2% | 16.8% | 3.82% | 29.5% | –
14 | O=P(O)(NCCCl)NCCCl [Ifosfamide mustard] | – | – | – | – | – | – | – | – | normalised viability ([13]; 10 nM): 99.6%; normalised viability ([13]; 1000 nM): 99.8%; normalised viability ([13]; 10000 nM): 97.5%; normalised viability ([14]; 10 nM): 96.2%; normalised viability ([14]; 1000 nM): 106%; normalised viability ([14]; 10000 nM): 95.6%; normalised viability ([15]; 10 nM): 72.7%; normalised viability ([15]; 1000 nM): 80.2%; normalised viability ([15]; 10000 nM): 91.5%; normalised viability ([16]; 10 nM): 101%; normalised viability ([16]; 1000 nM): 107%; normalised viability ([16]; 10000 nM): 111%
15 | CS(=O)(=O)CCNCc1ccc(-c2ccc3ncnc(Nc4ccc(OCc5cccc(F)c5)c(Cl)c4)c3c2)o1 [Lapatinib] (1000 nM) | 105% | 96.3% | 106% | 97.1% | 101% | 101% | 105% | 80.5% | –
16 | Cn1cnc2c(F)c(Nc3ccc(Br)cc3F)c(C(=O)NOCCO)cc21 [MEK-162] (1000 nM) | 86.6% | 95.9% | 1.31% | 100% | 86% | 90% | 74.8% | 97.9% | –
